Key:
A-375 [1] = assay: Cytotoxicity against human A375 cells assessed as reduction in cell viability incubated for 72 hrs by SRB assay; type: functional, cell-based
HT-29 = assay: Cytotoxicity against human HT29 cells assessed as reduction in cell viability incubated for 72 hrs by SRB assay; type: functional, cell-based
MCF7 = assay: Cytotoxicity against human MCF7 cells assessed as reduction in cell viability incubated for 72 hrs by SRB assay; type: functional, cell-based
A2780 [2] = assay: Cytotoxicity against human A2780 cells assessed as reduction in cell viability incubated for 72 hrs by SRB assay; type: functional, cell-based
FaDu = assay: Cytotoxicity against human FaDu cells assessed as reduction in cell viability incubated for 72 hrs by SRB assay; type: functional, cell-based
NIH3T3 = assay: Cytotoxicity against mouse NIH3T3 cells assessed as reduction in cell viability incubated for 72 hrs by SRB assay; type: cell-based
[3] = Selectivity index, ratio of IC50 for mouse NIH3T3 cells to IC50 for human A375 cells incubated for 72 hrs by SRB assay; type: toxicity; details: NIH3T3 cells versus A375 cells, read-out: Ratio IC50
A-375 [4] = assay: Induction of apoptosis in human A375 cells assessed as apoptotic cells after 48 hrs by annexin V-FITC and propidium iodide staining based flow cytometric analysis; type: functional
A-375 [5] = assay: Induction of apoptosis in human A375 cells assessed as late apoptotic cells after 48 hrs by annexin V-FITC and propidium iodide staining based flow cytometric analysis; type: functional
A-375 [6] = assay: Induction of apoptosis in human A375 cells assessed as necrotic cells after 48 hrs by annexin V-FITC and propidium iodide staining based flow cytometric analysis; type: functional
A2780 [7] = assay: Cell cycle arrest in human A2780 cells assessed as accumulation at G1 phase after 48 hrs by PI staining based flow cytometric analysis (reference value: 54.53 %); type: functional
A2780 [8] = assay: Cell cycle arrest in human A2780 cells assessed as accumulation at S phase after 48 hrs by PI staining based flow cytometric analysis (reference value: 34.22 %); type: functional
A2780 [9] = assay: Cell cycle arrest in human A2780 cells assessed as accumulation at G2/M phase after 48 hrs by PI staining based flow cytometric analysis (reference value: 11.25 %); type: functional
A2780 [10] = assay: Cell cycle arrest in human A2780 cells assessed as apoptotic cells after 48 hrs by PI staining based flow cytometric analysis (reference value: 0.48 %); type: functional
in vitro [11] = details: mouse, NIH3T3 cells versus HT29 cells
Description: Selectivity index, ratio of IC50 for mouse NIH3T3 cells to IC50 for human HT29 cells incubated for 72 hrs by SRB assay

in vitro [12] = details: mouse, NIH3T3 cells versus MCF7 cells
Description: Selectivity index, ratio of IC50 for mouse NIH3T3 cells to IC50 for human MCF7 cells incubated for 72 hrs by SRB assay

in vitro [13] = details: mouse, NIH3T3 cells versus A2780 cells
Description: Selectivity index, ratio of IC50 for mouse NIH3T3 cells to IC50 for human A2780 cells incubated for 72 hrs by SRB assay

in vitro [14] = details: mouse, NIH3T3 cells versus FaDu cells
Description: Selectivity index, ratio of IC50 for mouse NIH3T3 cells to IC50 for human FaDu cells incubated for 72 hrs by SRB assay

[15] = Drug uptake in mitochondria of human A2780 cells at 0.054 mM incubated for 1 hr with compound and Hoechst 33342 and followed by further incubation with Rhodamine123 for 20 mins by fluorescence microscopic method; type: ADME; details: a2780, 1.333 h, 54 µM, time 80 min
[16] = Drug uptake in nucleus of human A2780 cells at 0.054 mM incubated for 1 hr with compound and Hoechst 33342 and followed by further incubation with Rhodamine123 for 20 mins by fluorescence microscopic method; type: ADME, subcellular; details: a2780, 1.333 h, 54 µM, time 80 min
[17] = Homo sapiens, A-375, 72 h, read-out: IC50
[18] = Homo sapiens, HT-29, 72 h, read-out: IC50
[19] = Homo sapiens, MCF7, 72 h, read-out: IC50
[20] = Homo sapiens, A2780, 72 h, read-out: IC50
[21] = Homo sapiens, FaDu, 72 h, read-out: IC50
[22] = Mus musculus, NIH3T3, 72 h, read-out: IC50

Compound	IC50 (A-375 [1]; [17])	IC50 (HT-29; [18])	IC50 (MCF7; [19])	IC50 (A2780 [2]; [20])	IC50 (FaDu; [21])	IC50 (NIH3T3; [22])	selectivity ratio at 72 h [3]	selectivity ratio at 72 h (in vitro [12])	selectivity ratio at 72 h (in vitro [13])	selectivity ratio at 72 h (in vitro [14])	also measured
CCN(CC)c1ccc2c(-c3ccccc3C(=O)OCC(=O)[C@@]3(O)CC[C@H]4[C@@H]5CCC6=CC(=O)C=C[C@@]6(C)[C@H]5C(=O)C[C@@]43C)c3ccc(=[N+](CC)CC)cc-3oc2c1.[Cl-]	100 nM	600 nM	200 nM	300 nM	400 nM	1800 nM	1.8	7.3	5.2	4.1	Activity (A-375 [4]): 48%; Activity (A-375 [5]): 14%; Activity (A-375 [6]): 2%; Activity (A2780 [7]): 12.78%; Activity (A2780 [8]): 87.22%; Activity (A2780 [9]): 0%; Activity (A2780 [10]): 37.36%; selectivity ratio at 72 h (in vitro [11]): 2.9
CCN(CC)c1ccc2c(-c3ccccc3C(=O)O[C@H]3CC[C@H]4[C@@H]5CCC6=CC(=O)CC[C@]6(C)[C@H]5CC[C@]34C)c3ccc(=[N+](CC)CC)cc-3oc2c1.[Cl-]	160 nM	120 nM	60 nM	80 nM	200 nM	200 nM	1.1	3.1	2.2	1	Drug uptake [15]: Active; Drug uptake [16]: Not Active; Activity (A-375 [4]): 5%; Activity (A-375 [5]): 12%; Activity (A-375 [6]): 20%; Activity (A2780 [7]): 51.77%; Activity (A2780 [8]): 44.74%; Activity (A2780 [9]): 3.48%; Activity (A2780 [10]): 3.29%; selectivity ratio at 72 h (in vitro [11]): 1.5
CCN(CC)c1ccc2c(-c3ccccc3C(=O)O[C@H]3CC[C@@]4(C)C(=CC[C@@H]5[C@@H]4CC[C@]4(C)C(c6cccnc6)=CC[C@@H]54)C3)c3ccc(=[N+](CC)CC)cc-3oc2c1	200 nM	200 nM	200 nM	100 nM	200 nM	300 nM	1.7	1.6	1.8	1.8	selectivity ratio at 72 h (in vitro [11]): 1.1
CCN(CC)c1ccc2c(-c3ccccc3C(=O)O[C@H]3CC[C@@]4(C)C(=CC[C@H]5[C@@H]6CC[C@H]([C@H](C)CCCC(C)C)[C@@]6(C)CC[C@@H]54)C3)c3ccc(=[N+](CC)CC)cc-3oc2c1.[Cl-]	–	–	–	–	–	–	–	–	–	–	IC50 (A-375 [1]; a-375): Nd(Insoluble); IC50 (HT-29; ht-29): Nd(Insoluble); IC50 (MCF7; mcf7): Nd(Insoluble); IC50 (A2780 [2]; a2780): Nd(Insoluble); IC50 (FaDu; fadu): Nd(Insoluble); IC50 (NIH3T3; nih3t3): Nd(Insoluble)
C=C(c1ccc(C(=O)N2CCN(C(=O)c3ccccc3-c3c4ccc(=[N+](CC)CC)cc-4oc4cc(N(CC)CC)ccc34)CC2)cc1)c1cc2c(cc1C)C(C)(C)CCC2(C)C.[Cl-]	–	–	–	–	–	–	–	–	–	–	IC50 (A-375 [1]; a-375): Nd(Insoluble); IC50 (HT-29; ht-29): Nd(Insoluble); IC50 (MCF7; mcf7): Nd(Insoluble); IC50 (A2780 [2]; a2780): Nd(Insoluble); IC50 (FaDu; fadu): Nd(Insoluble); IC50 (NIH3T3; nih3t3): Nd(Insoluble)
C[C@]12CC[C@H](O)C=C1CC[C@@H]1[C@@H]2CC[C@]2(C)C(c3cccnc3)=CC[C@@H]12	–	–	–	–	–	–	–	–	–	–	IC50 (A-375 [1]; a-375): Nd(Insoluble); IC50 (HT-29; ht-29): Nd(Insoluble); IC50 (MCF7; mcf7): Nd(Insoluble); IC50 (A2780 [2]; a2780): Nd(Insoluble); IC50 (FaDu; fadu): Nd(Insoluble); IC50 (NIH3T3; nih3t3): Nd(Insoluble)
CCN(CC)c1ccc2c(-c3ccccc3C(=O)N3CCNCC3)c3ccc(=[N+](CC)CC)cc-3oc2c1	> 30000 nM	> 30000 nM	17800 nM	26400 nM	> 30000 nM	> 30000 nM	–	–	1.1	–	–
C=C(c1ccc(C(=O)O)cc1)c1cc2c(cc1C)C(C)(C)CCC2(C)C [BEXAROTENE]	28400 nM	> 30000 nM	10600 nM	26500 nM	29800 nM	18700 nM	0.7	1.8	0.6	0.6	–
COc1cccc2c1C(=O)c1c(O)c3c(c(O)c1C2=O)C[C@@](O)(C(=O)CO)C[C@@H]3O[C@H]1C[C@H](N)[C@H](O)[C@H](C)O1 [DOXORUBICIN]	–	900 nM	–	10 nM	–	400 nM	–	–	–	–	–
C[C@]12C=CC(=O)C=C1CC[C@@H]1[C@@H]2C(=O)C[C@@]2(C)[C@H]1CC[C@]2(O)C(=O)CO [PREDNISONE]	> 30000 nM	> 30000 nM	> 30000 nM	–	> 30000 nM	> 30000 nM	–	–	–	–	–
CN[C@@H]1C[C@H]2O[C@@](C)([C@@H]1OC)n1c3ccccc3c3c4c(c5c6ccccc6n2c5c31)C(=O)NC4 [STAUROSPORINE]	–	–	–	–	–	8 nM	–	–	–	–	–
